Assay results as given in patent US10266806B2, “Stem cell-derived hepatocytes in co-culture and uses thereof” (Colorado State University Research Foundation, priority 2014, dated 2019).
Counter-ions that a name gives are not always drawn. Like-named read-outs stand apart in the source and are kept apart here.

Key:
[1] = total human plasma concentration; cited from earlier work
iHeps in iMPCCs [2] = test system: iHeps in iMPCCs
[3] = test system: primary hepatocytes (HUM4011)
[4] = test system: primary human hepatocytes in MPCCs; details: (ref 19), cited from earlier work; for TC50 in MPCCs ATP: concentration at which activity decreases by 50% of DMSO-only controls
[5] = negative number: withdrawn from the market; higher positive numbers: greater DILI concern; cited from earlier work
iHeps in iMPCCs [6] = assay: Drug toxicity screening in iMPCCs (albumin, ATP, urea; binary decision and TC50)

## C#CC1(O)CC[C@H]2[C@@H]3CCC4=CC(=O)CC[C@@H]4[C@H]3CC[C@@]21CC (mixture of isomers) [Norgestrel]
[1]
  Cmax: 9 nM

## CC(=O)Nc1ccc(O)cc1 [Acetaminophen]
iMPCCs
  albumin production in iMPCCs: declined significantly
  urea production in iMPCCs: declined significantly

## CC(=O)Nc1nnc(S(N)(=O)=O)s1 [Acetazolamide]
iHeps in iMPCCs [2]
  Model predictions iMPCC (binary decision): −
[3]
  toxicity call in another donor of primary hepatocytes: false negative
[1]
  Cmax: 135000 nM

## CC(=O)Oc1ccccc1C(=O)O [Aspirin]
iHeps in iMPCCs [2]
  Model predictions iMPCC (binary decision): −
iHeps in iCCs
  Model predictions iCC (binary decision): −
iMPCCs
  albumin production in iMPCCs: minimally affected
  urea production in iMPCCs: minimally affected
[1]
  Cmax: 5530 nM

## CCc1oc2ccccc2c1C(=O)c1cc(Br)c(O)c(Br)c1 [Benzbromarone]
[4]
  TC50 in MPCCs Albumin: 31.3 µM
  TC50 in MPCCs Urea: 27.9 µM
  TC50 in MPCCs ATP: 15.1 µM
[5]
  DILI Sev (DILI severity scores from the LTKB of the FDA): −2
[1]
  Cmax: 4360 nM

## CNCCc1ccccn1.Cl.Cl [Betahistine 2HCl]
iHeps in iMPCCs [2]
  Model predictions iMPCC (binary decision): −
[5]
  DILI Sev (DILI severity scores from the LTKB of the FDA): 6
[1]
  Cmax: 4 nM

## O=C1CC2(CCCC2)CC(=O)N1CCCCN1CCN(c2ncccn2)CC1 [Buspirone]
[5]
  DILI Sev (DILI severity scores from the LTKB of the FDA): 3
[1]
  Cmax: 5 nM

## C[C@H](CS)C(=O)N1CCC[C@H]1C(=O)O [Captopril]
[1]
  Cmax: 4280 nM

## CCCCCCCCCCCCCCCC(=O)OC[C@@H](NC(=O)C(Cl)Cl)[C@H](O)c1ccc([N+](=O)[O-])cc1 [Chloramphenicol palmitate]
iHeps in iMPCCs [2]
  Model predictions iMPCC (binary decision): −
[1]
  Cmax: 20000 nM

## O=C(O)c1cn(C2CC2)c2cc(N3CCNCC3)c(F)cc2c1=O [Ciprofloxacin HCl]
iHeps in iMPCCs [2]; human, 6 days
  TC50 in MPCCs ATP: 804.2 µM
  TC50 in MPCCs Albumin: 525.3 µM
  TC50 in MPCCs Urea: 326.3 µM

## CCN(CC)CCOc1ccc(C(=C(Cl)c2ccccc2)c2ccccc2)cc1 [Clomiphene citrate]
iHeps in iMPCCs [2]
  Model predictions iMPCC (binary decision): −
[1]
  Cmax: 22 nM

## CN(C)CCCN1c2ccccc2CCc2ccc(Cl)cc21 [Clomipramine]
iHeps in iMPCCs [2]; human, 6 days
  TC50 in MPCCs Albumin: 9.4 µM
  TC50 in MPCCs Urea: 13.8 µM
[4]
  TC50 in MPCCs Albumin: 9.4 µM
  TC50 in MPCCs Urea: 9.9 µM
  TC50 in MPCCs ATP: 12.0 µM

## O=P1(N(CCCl)CCCl)NCCCO1 (stereo not drawn) [Cyclophosphamide]
[4]
  TC50 in MPCCs Albumin: 1449.4 µM
  TC50 in MPCCs Urea: 1746.0 µM
  TC50 in MPCCs ATP: 6165.0 µM
[1]
  Cmax: 265000 nM
iHeps in iMPCCs [6]
  TC50 in MPCCs Albumin: 18670.7 µM

## CC(=O)O[C@]1(C(C)=O)CC[C@H]2[C@@H]3C=C(Cl)C4=CC(=O)[C@@H]5C[C@@H]5[C@]4(C)[C@H]3CC[C@@]21C [Cyproterone acetate]
iHeps in iMPCCs [2]
  toxicity call in iMPCCs / iHeps: toxic
iHeps in iMPCCs [2]; human, 6 days
  TC50 in MPCCs Albumin: 51.0 µM
  TC50 in MPCCs Urea: 33.1 µM
iHeps in iCCs
  Model predictions iCC (binary decision): −
  toxicity call in iCCs: non-toxic
[4]
  TC50 in MPCCs Urea: 41.0 µM
  TC50 in MPCCs ATP: 39.1 µM
[1]
  Cmax: 656 nM

## C#C[C@]1(O)CC[C@H]2[C@@H]3CCC4=Cc5oncc5C[C@]4(C)[C@H]3CC[C@@]21C [Danazol]
[1]
  Cmax: 74 nM

## Nc1ccc(S(=O)(=O)c2ccc(N)cc2)cc1 [Dapsone]
iHeps in iMPCCs [2]
  Model predictions iMPCC (binary decision): −
  toxicity call in iMPCCs / iHeps: false negative result
[3]
  toxicity call in another donor of primary hepatocytes: false negative
[1]
  Cmax: 6010 nM

## C[C@@H]1C[C@H]2[C@@H]3CCC4=CC(=O)C=C[C@]4(C)[C@@]3(F)[C@@H](O)C[C@]2(C)[C@@]1(O)C(=O)CO [Dexamethasone]
iHeps in iMPCCs [2]
  Model predictions iMPCC (binary decision): −
iHeps in iCCs
  Model predictions iCC (binary decision): −
[5]
  DILI Sev (DILI severity scores from the LTKB of the FDA): 3
[1]
  Cmax: 224 nM

## O=C(O)Cc1ccccc1Nc1c(Cl)cccc1Cl [Diclofenac]
[4]
  TC50 in MPCCs Albumin: 141.9 µM
  TC50 in MPCCs Urea: 206.2 µM
  TC50 in MPCCs ATP: 638.4 µM

## C[C@]12CC[C@@H]3c4ccc(O)cc4CC[C@H]3[C@@H]1CCC2=O [Estrone]
[1]
  Cmax: 22 nM

## CC(C(=O)O)c1ccc(-c2ccccc2)c(F)c1 (stereo not drawn) [Flurbiprofen]
iHeps in iMPCCs [2]; human, 6 days
  comparison of urea TC50 values, iHeps versus primary hepatocytes: higher TC50 in iHeps
[4]
  TC50 in MPCCs Albumin: 2406.8 µM
  TC50 in MPCCs Urea: 2459.0 µM
  TC50 in MPCCs ATP: 3351.1 µM
[5]
  DILI Sev (DILI severity scores from the LTKB of the FDA): 3
[1]
  Cmax: 57400 nM
iHeps in iMPCCs [6]
  TC50 in MPCCs Albumin: 5683.4 µM

## NC(=O)NO [Hydroxyurea]
iHeps in iMPCCs [2]; human, 6 days
  TC50 in MPCCs ATP: 49358.3 µM
  TC50 in MPCCs Albumin: 18398.4 µM
[4]
  TC50 in MPCCs Albumin: 28616.2 µM
  TC50 in MPCCs Urea: 19647.8 µM
  TC50 in MPCCs ATP: 7407.0 µM
[1]
  Cmax: 794000 nM

## CN(C)CCCN1c2ccccc2CCc2ccccc21 [Imipramine HCl]
[5]
  DILI Sev (DILI severity scores from the LTKB of the FDA): 3

## O=C(O)/C=C\C(=O)O [Maleic acid]
iHeps in iMPCCs [2]
  Model predictions iMPCC (binary decision): −
[3]
  toxicity call in another donor of primary hepatocytes: borderline positive
[1]
  Cmax: 1000 nM

## COC(=O)Nc1nc2ccc(C(=O)c3ccccc3)cc2[nH]1 [Mebendazole]
iHeps in iMPCCs [2]; human, 6 days
  TC50 in MPCCs Albumin: 1.9 µM
  TC50 in MPCCs Urea: 2.3 µM
[4]
  TC50 in MPCCs Albumin: 11.6 µM
  TC50 in MPCCs ATP: 11.5 µM
[1]
  Cmax: 126 nM

## Cc1cccc(Nc2ccccc2C(=O)O)c1C [Mefenamic acid]
iHeps in iMPCCs [2]; human, 6 days
  TC50 in MPCCs ATP: 2551.9 µM
  TC50 in MPCCs Albumin: 410.3 µM
  TC50 in MPCCs Urea: 572.3 µM
[4]
  TC50 in MPCCs Albumin: 1291.9 µM
  TC50 in MPCCs Urea: 1255.1 µM
  TC50 in MPCCs ATP: 1393.4 µM
[1]
  Cmax: 27000 nM

## Cn1cc[nH]c1=S [Methimazole]
[1]
  Cmax: 1870 nM

## Clc1ccc(COC(Cn2ccnc2)c2ccc(Cl)cc2Cl)c(Cl)c1 (stereo not drawn) [Miconazole]
iHeps in iMPCCs [2]
  Model predictions iMPCC (binary decision): −
[1]
  Cmax: 24 nM

## CNCCC=C1c2ccccc2CCc2ccccc21 [Nortriptyline HCl]
[5]
  DILI Sev (DILI severity scores from the LTKB of the FDA): 8
[1]
  Cmax: 122 nM

## CCOc1ccc(NC(C)=O)cc1 [Phenacetin]
iHeps in iMPCCs [2]; human, 6 days
  TC50 in MPCCs Albumin: 1213.3 µM
  TC50 in MPCCs Urea: 253.3 µM
iHeps in iCCs
  Model predictions iCC (binary decision): −
  toxicity call in iCCs: not identified as toxic
[4]
  TC50 in MPCCs Urea: 1076.1 µM
[1]
  Cmax: 13400 nM

## Cc1ccc(N(CC2=NCCN2)c2cccc(O)c2)cc1 [Phentolamine mesylate]
iHeps in iMPCCs [2]
  Model predictions iMPCC (binary decision): −
[1]
  Cmax: 86 nM

## CCCCC1C(=O)N(c2ccccc2)N(c2ccccc2)C1=O [Phenylbutazone]
[4]
  TC50 in MPCCs Albumin: 6414.4 µM
  TC50 in MPCCs Urea: 2532.0 µM
  TC50 in MPCCs ATP: 7566.7 µM
[1]
  Cmax: 487000 nM

## CN1C(C(=O)Nc2ccccn2)=C(O)c2ccccc2S1(=O)=O [Piroxicam]
iHeps in iMPCCs [2]
  toxicity call in iMPCCs / iHeps: toxic
[5]
  DILI Sev (DILI severity scores from the LTKB of the FDA): 3
[1]
  Cmax: 5140 nM

## C[C@]12C=CC(=O)C=C1CC[C@@H]1[C@@H]2C(=O)C[C@@]2(C)[C@H]1CC[C@]2(O)C(=O)CO [Prednisone]
iHeps in iMPCCs [2]
  Model predictions iMPCC (binary decision): −
[1]
  Cmax: 68 nM

## CC(=O)[C@H]1CC[C@H]2[C@@H]3CCC4=CC(=O)CC[C@]4(C)[C@H]3CC[C@]12C [Progesterone]
[1]
  Cmax: 193 nM

## CC(C)NCC(O)COc1cccc2ccccc12 (stereo not drawn) [Propranolol]
iHeps in iMPCCs [2]
  Model predictions iMPCC (binary decision): −
[1]
  Cmax: 201 nM

## NC(=O)c1cnccn1 [Pyrazinamide]
iHeps in iMPCCs [2]
  toxicity call in iMPCCs / iHeps: toxic
iHeps in iMPCCs [2]; human, 6 days
  TC50 in MPCCs Albumin: 33457.5 µM
iHeps in iCCs
  Model predictions iCC (binary decision): −
  toxicity call in iCCs: non-toxic
[4]
  TC50 in MPCCs Albumin: 20420.3 µM
  TC50 in MPCCs Urea: 14781.6 µM
  TC50 in MPCCs ATP: 19695.5 µM
[5]
  DILI Sev (DILI severity scores from the LTKB of the FDA): 3
[1]
  Cmax: 407000 nM

## C=C[C@H]1C[N@@]2CC[C@H]1C[C@H]2[C@H](O)c1ccnc2ccc(OC)cc12 [Quinine]
iHeps in iMPCCs [2]; human, 6 days
  TC50 in MPCCs ATP: 182.2 µM
  TC50 in MPCCs Albumin: 115.7 µM
  TC50 in MPCCs Urea: 127.9 µM
[4]
  TC50 in MPCCs Albumin: 251.6 µM
  TC50 in MPCCs Urea: 285.2 µM
  TC50 in MPCCs ATP: 259.1 µM
[1]
  Cmax: 9250 nM

## CN(CCOc1ccc(CC2SC(=O)NC2=O)cc1)c1ccccn1 (stereo not drawn) [Rosiglitazone]
[1]
  Cmax: 1120 nM

## CC/C(=C(\c1ccccc1)c1ccc(OCCN(C)C)cc1)c1ccccc1 [Tamoxifen]
iHeps in iMPCCs [2]; human, 6 days
  TC50 in MPCCs Albumin: 4.2 µM
  TC50 in MPCCs Urea: 11.7 µM
iHeps in iCCs
  Model predictions iCC (binary decision): −
[4]
  TC50 in MPCCs Albumin: 3.2 µM
  TC50 in MPCCs Urea: 3.9 µM
  TC50 in MPCCs ATP: 15.8 µM
[1]
  Cmax: 162 nM

## O=c1n(CCCN2CCN(c3cccc(Cl)c3)CC2)nc2ccccn12 [Trazodone HCl]
iHeps in iMPCCs [2]; human, 6 days
  TC50 in MPCCs ATP: 351.5 µM
  TC50 in MPCCs Albumin: 205.5 µM
  TC50 in MPCCs Urea: 272.4 µM
[4]
  TC50 in MPCCs Albumin: 64.8 µM
  TC50 in MPCCs Urea: 121.8 µM
  TC50 in MPCCs ATP: 201.7 µM
[1]
  Cmax: 5060 nM

## Cc1c(C)c2c(c(C)c1O)CCC(C)(COc1ccc(CC3SC(=O)NC3=O)cc1)O2 (stereo not drawn) [Troglitazone]
iMPCCs
  albumin production in iMPCCs: declined significantly
  urea production in iMPCCs: declined significantly
[5]
  DILI Sev (DILI severity scores from the LTKB of the FDA): −2

## CC(=O)CC(c1ccccc1)c1c(O)c2ccccc2oc1=O (stereo not drawn) [Warfarin]
[1]
  Cmax: 4890 nM

## CCN(CC)C(=O)/C(C#N)=C/c1cc(O)c(O)c([N+](=O)[O-])c1 [entacapone]
iHeps in iMPCCs [2]
  albumin secretions in iMPCCs, toxicity over time and dose: time- and dose-dependent toxicities

## Cc1ccc(C(=O)c2cc(O)c(O)c([N+](=O)[O-])c2)cc1 [tolcapone]
iHeps in iMPCCs [2]
  albumin secretions in iMPCCs, toxicity over time and dose: time- and dose-dependent toxicities
iMPCCs
  albumin production in iMPCCs: declined significantly
  urea production in iMPCCs: declined significantly
